Among the data in ChEMBL document CHEMBL2331413, “Novel in vivo active anti-malarials based on a hydroxy-ethyl-amine scaffold” (Bioorg Med Chem Lett, 2013) are IC50 values, retold here.

Assay [1] concerns Plasmodium falciparum. In words: Antimalarial activity against chloroquine-sensitive Plasmodium falciparum NF54 infected in RBC after 72 hrs by [3H]hypoxanthine incorporation assay in presence of 50 % serum. The format is functional, organism-based.
For assay [2], the system named is Plasmodium falciparum. Briefly: Antimalarial activity against chloroquine-sensitive Plasmodium falciparum NF54 infected in RBC after 72 hrs by [3H]hypoxanthine incorporation assay in presence of 0.5 % albumax. The format is functional, organism-based.

Regarding `CCCN(CCC)C(=O)c1cccc(C(=O)N[C@@H](Cc2ccccc2)[C@H](O)CNC2CCN(C)CC2)c1`, the IC50 in assay [1] and in assay [2] was more than 500 nM each time.

Take `C[C@@H](NC[C@@H](O)[C@H](Cc1ccccc1)NC(=O)c1ccc(N2CCN(Cc3ccccc3)CC2)cc1)c1ccccc1`: the IC50 in assay [1] is 39 nM; in assay [2] it was 21 nM.

In the case of `CC(C)(NC[C@@H](O)[C@H](Cc1ccccc1)NC(=O)c1cccc(-c2ccccc2)c1)c1ccccc1`, the IC50 in assay [2] came out at 37 nM.

With `CC(C)(NC[C@@H](O)[C@H](Cc1ccccc1)NC(=O)Cc1cccc2ccccc12)c1ccccc1`, the IC50 in assay [2] was more than 500 nM.

For the molecule `CCCN(CCC)C(=O)c1ccccc1C(=O)N[C@@H](Cc1ccccc1)[C@H](O)CN[C@H](C)c1ccccc1`, the IC50 in assay [1] and in assay [2] was more than 500 nM in each case.

For the molecule `C[C@@H](NC[C@@H](O)[C@H](Cc1ccccc1)NC(=O)c1ccc(O)c(CN2CCCC2)c1)c1ccccc1`, the IC50 in assay [1] stood at 386 nM; in assay [2] it was 261 nM.

Consider `CCCN(CCC)C(=O)c1cccc(C(=O)N[C@@H](Cc2ccccc2)[C@H](O)CNC(C)C)c1`, for which the IC50 is 150 nM in assay [1] and 78 nM in assay [2].

`CC(C)(NC[C@@H](O)[C@H](Cc1ccccc1)NC(=O)c1ccc(Cl)cc1)c1ccccc1`: the IC50 in assay [2] worked out at 349 nM.

Consider `CCCNC(=O)c1cccc(C(=O)N[C@@H](Cc2ccccc2)[C@H](O)CN[C@H](C)c2ccccc2)c1`, for which the IC50 in assay [1] was found to be 30 nM; in assay [2], 12 nM.

Consider `CCCN(CCC)C(=O)c1cccc(C(=O)N[C@@H](Cc2ccccc2)[C@H](O)CNCCc2ccccc2)c1`, for which the IC50 in assay [2] worked out at 186 nM.

Consider `CCCN(CCC)C(=O)c1cccc(C(=O)N[C@@H](Cc2ccccc2)[C@@H](O)CNCCCc2ccccc2)c1`, for which the IC50 in assay [1] and in assay [2] was more than 500 nM in each case.

On to `CCCN(CCC)C(=O)c1cccc(C(=O)N[C@@H](Cc2ccccc2)[C@H](O)CNC2Cc3ccccc3C2)c1`, for which, in assay [2], the IC50 is 11 nM.

On to `CCCN(CCC)C(=O)c1cccc(C(=O)N[C@@H](Cc2ccccc2)[C@H](O)CNCc2ccccc2)c1`, for which the IC50 in assay [2] was more than 500 nM.

Consider `CCCN(CCC)C(=O)c1cccc(C(=O)N[C@@H](Cc2ccccc2)[C@H](O)CN2CCN(C(C)=O)CC2)c1`, for which the IC50 in assay [2] was more than 500 nM.

Take `CCCN(CCC)C(=O)c1cccc(C(=O)N[C@@H](Cc2ccccc2)[C@H](O)CNC(C)(C)c2ccccc2F)c1`: the IC50 was found to be 142 nM in assay [1] and 21 nM in assay [2].

In the case of `CC(C)(NC[C@@H](O)[C@H](Cc1ccccc1)NC(=O)c1ccncc1)c1ccccc1`, in assay [2], the IC50 is more than 500 nM.

As to `C[C@@H](NC[C@@H](O)[C@H](Cc1ccccc1)NC(=O)c1cccc(C(=O)N2CCN(C)CC2)c1)c1ccccc1`, the IC50 in assay [1] is 102 nM; in assay [2] it was 98 nM.

As for `CCCN(CCC)C(=O)c1cccc(C(=O)N[C@@H](Cc2ccccc2)[C@H](O)CNC(C)(C)C)c1`, the IC50 was 66 nM in assay [1] and 24 nM in assay [2].

Turning to `CC(C)(NC[C@@H](O)[C@H](Cc1ccccc1)NC(=O)c1ccc2cc[nH]c2c1)c1ccccc1`, the IC50 in assay [2] came to 146 nM.

Regarding `COCCCC(=O)N[C@@H](Cc1ccccc1)[C@H](O)CNC(C)(C)c1ccccc1`, the IC50 in assay [2] is more than 500 nM.

Take `CC(C)(NC[C@@H](O)[C@H](Cc1ccccc1)NC(=O)Cc1ccccc1)c1ccccc1`: the IC50 in assay [2] is more than 500 nM.

Take `CN(C)c1cccc(C(=O)N[C@@H](Cc2ccccc2)[C@H](O)CNC(C)(C)c2ccccc2)c1`: the IC50 in assay [2] was 102 nM.

Consider `CC(C)(NC[C@@H](O)[C@H](Cc1ccccc1)NC(=O)C1CCCC1)c1ccccc1`, for which, in assay [2], the IC50 is more than 500 nM.

Consider `CC(C)(NC[C@@H](O)[C@H](Cc1ccccc1)NC(=O)c1cccc(C(F)(F)F)c1)c1ccccc1`, for which, in assay [2], the IC50 stood at 300 nM.

As for `CCCN(CCC)C(=O)c1cccc(C(=O)N[C@@H](Cc2ccccc2)[C@H](O)CNC(C)(C)c2ccc(OC)cc2)c1`, the IC50 in assay [1] came to 44 nM; in assay [2] it was 13 nM.

As for `CC(C)(NC[C@@H](O)[C@H](Cc1ccccc1)NC(=O)c1cccc2ncccc12)c1ccccc1`, the IC50 in assay [2] was more than 500 nM.

Regarding `CCCN(CCC)C(=O)c1cccc(C(=O)N[C@@H](Cc2ccccc2)[C@H](O)CNC2CCc3ccccc32)c1` (some centres undefined), the concentration for half-maximal inhibition (IC50) in assay [2] came to 48 nM.

As for `CC(C)C[C@H](NC(=O)c1ccc(N2CCN(C)CC2)cc1)[C@H](O)CNC1CCCC1`, the IC50 in assay [1] and in assay [2] was more than 500 nM throughout.

On to `CCCN(CCC)C(=O)c1cccc(C(=O)N[C@@H](Cc2ccccc2)[C@H](O)CN[C@@H](C)c2ccccc2)c1`, for which the IC50 in assay [2] turned out to be 21 nM.

As for `Cc1cc(C(=O)N[C@@H](Cc2ccccc2)[C@H](O)CNC(C)(C)c2ccccc2)nn1C`, in assay [2], the IC50 was more than 500 nM.

As for `CCCN(CCC)C(=O)c1cccc(C(=O)N[C@@H](Cc2ccccc2)[C@H](O)CNC2CCCCC2)c1`, the IC50 in assay [1] was 28 nM; in assay [2], 14 nM.

`C[C@@H](NC[C@@H](O)[C@H](Cc1ccccc1)NC(=O)c1cccc(C(=O)N2CCCC2)c1)c1ccccc1`: the IC50 in assay [1] turned out to be 9.3 nM; in assay [2], 4.9 nM.

For `CC(=O)Nc1cccc(C(=O)N[C@@H](Cc2ccccc2)[C@H](O)CNC(C)(C)c2ccccc2)c1`, the IC50 in assay [2] was found to be 44 nM.

With `CC1CN(c2ccc(C(=O)N[C@@H](Cc3ccccc3)[C@H](O)CN[C@H](C)c3ccccc3)cc2)CCN1` (some centres undefined), the IC50 in assay [1] turned out to be 300 nM; in assay [2] it was 190 nM.

For the molecule `CC(C)(C)c1ccc(/C=C/C(=O)N[C@@H](Cc2ccccc2)[C@H](O)CNC(C)(C)c2ccccc2)cc1`, in assay [2], the IC50 was determined as 444 nM.

`CCCN(CCC)C(=O)c1cccc(C(=O)N[C@@H](Cc2ccccc2)[C@H](O)CNC(C)(C)c2ccc(C#N)cc2)c1`: the IC50 in assay [1] turned out to be 188 nM; in assay [2], 55 nM.

On to `Cn1cc(C(=O)N[C@@H](Cc2ccccc2)[C@H](O)CNC(C)(C)c2ccccc2)c2ccccc21`, for which, in assay [2], the IC50 is more than 500 nM.

For `CC(=O)N1CCN(c2ccc(C(=O)N[C@@H](Cc3ccccc3)[C@H](O)CNC(C)(C)c3ccccc3)cc2)CC1`, the IC50 in assay [2] is 162 nM.

Regarding `CCCN(CCC)C(=O)c1cccc(C(=O)N[C@H](CCNC(C)C)Cc2ccccc2)c1`, the IC50 in assay [1] and in assay [2] was more than 500 nM each time.

On to `CN1CCN(c2ccc(C(=O)N[C@@H](Cc3ccccc3)C(F)(F)CNC3CCCC3)cc2)CC1`, for which the IC50 in assay [1] and in assay [2] was more than 500 nM throughout.

As to `CCCN(CCC)C(=O)c1cccc(C(=O)N[C@@H](Cc2ccccc2)[C@H](O)CNC(C)(C)c2cccc(OC)c2)c1`, the values for the IC50 in assay [1] and in assay [2] were 25 nM and less than 7.8 nM, respectively.

On to `CCCN(CCC)C(=O)c1cccc(C(=O)N[C@@H](Cc2ccccc2)[C@H](O)CN2CCN(Cc3ccccc3)CC2)c1`, for which the IC50 in assay [2] is more than 500 nM.

Regarding `CCCN(CCC)C(=O)c1cccc(C(=O)N[C@@H](Cc2ccccc2)[C@H](O)CNC(C)(C)c2ccccc2)c1`, the IC50 in assay [1] is 40 nM; in assay [2], 7.6 nM.

With `Cn1cnc(C(=O)N[C@@H](Cc2ccccc2)[C@H](O)CNC(C)(C)c2ccccc2)c1`, the IC50 in assay [2] is more than 500 nM.

With `CN1CCN(c2ccc(C(=O)N[C@@H](Cc3ccccc3)[C@H](O)CNC3CCCC3)cc2)CC1`, the IC50 in assay [1] came to 75 nM; in assay [2] it was 81 nM.

For the molecule `CN1CCCc2cc(C(=O)N[C@@H](Cc3ccccc3)[C@H](O)CNC(C)(C)c3ccccc3)ccc21`, the IC50 in assay [2] was more than 500 nM.

In the case of `COc1cccc(C(=O)N[C@@H](Cc2ccccc2)[C@H](O)CNC(C)(C)c2ccccc2)c1`, the IC50 in assay [2] was 349 nM.

Regarding `CC(=O)N[C@@H](Cc1ccccc1)[C@H](O)CNC(C)(C)c1ccccc1`, the IC50 in assay [2] was more than 500 nM.
